# Experimental data published in patent publication US12421271B2, “Solid forms of (2S,3S,4S,5R,6S)-3,4,5-trihydroxy-6-(((4AR, 10AR)-7-hydroxy-1-propyl-1,2,3,4,4A,5,10,10A-octahydrobenzo[g]quinolin-6-yl)oxy)tetrahydro-2H-pyran-2-carboxylic acid” (H. Lundbeck A/S, priority 2019, dated 2025).
# Where two headings read alike, the source gives them in different places.
# Legend:
# [1] = PK experiments in Wistar rats, plasma compound (I) after oral dosing of prodrugs; format: in vivo, rat; conditions: FIG. 1, doses equal to 287 μg/kg of compound (I)
# Experimental: Plasma was placed on water-ice following collection. Final storage at approximately −70° C.
# Mobile phase B: Acetonitrile. […] Flow rate 0.5 mL/min.
# The rats had unrestricted access to the diet.
# Mobile phase B: Acetonitrile+0.2% formic acid. […] Flow rate 0.3 mL/min.
# Dosing and blood sampling for compound (Ic): Han Wistar rats were supplied by Envigo, UK. […] The rats received a standard laboratory diet Teklad 2014C. The rats had unrestricted access to the diet.
# human 5-HT2B receptor = target: T1, human 5-HT2B receptor (Homo sapiens, UniProt P41595); experiment: 5-HT2B agonist activity assay, IP1 production (HTRF) in CHO cells; format: cell-based
# T1 construct: host or cells: CHO
# Experimental: Evaluation of the agonist activity of compounds (I), (Ia) and (Ib) at the human 5-HT2B receptor was performed by Eurofins/Cerep (France) measuring the compound effects on inositol monophosphate (IP1) production using the HTRF detection method. Briefly, the human 5-HT2B receptor was expressed in transfected CHO cells. The cells were suspended in a buffer containing 10 mM Hepes/NaOH (pH 7.4), 4.2 mM KCl, 146 mM NaCl, 1 mM CaCl2, 0.5 mM MgCl2, 5.5 mM glucose and 50 mM LiCl, then distributed in microplates at a density of 4100 cells/well and incubated for 30 minutes at 37° C. in the presence of buffer (basal control), test compound or reference agonist. For stimulated control measurement, separate assay wells contained 1 μM 5-HT. Following incubation, the cells were lysed and the fluorescence acceptor (fluorophen D2-labeled IP1) and fluorescence donor (anti-IP1 antibody labeled with europium cryptate) were added. After 60 minutes at room temperature, the fluorescence transfer was measured at lambda(Ex) 337 nm and lambda(Em) 620 and 665 nm using a microplate reader (Rubystar, BMG). The IP1 concentration was determined by dividing the signal measured at 665 nm by that measured at 620 nm (ratio). The results were expressed as a percent of the control response to 1 μM 5-HT. […]
# [2] = Liu et al., Bioorganic Med. Chem. (2008); rats; cited from earlier work
# [3] = Conversion of (Id) to (I) in fresh rat blood; format: in vitro ADME; conditions: 1 μg/mL, 37° C., 0-60 minutes
# Experimental: (§1) Conversion of (Id) in human blood (average of 3 donors) and rat blood (average of 45 donors) to (I) was shown in fresh blood at 37° C. spiked with 1 μg/mL of (Id). (I) was measured at 0, 5, 15, 30 and 60 minutes in isolated plasma. Analysis method and Instrumentation as described in Examples 9 and 10 below in the section “Instrumentation used for analysis of compound (l) from dosing of compounds (Ic) and (Id).”
# [4] = pKa values / major species of ionization; format: physicochemical
# rat locomotor activity = experiment: Rat locomotor activity (hyperactivity) assay, open field, with PK/PD; format: in vivo
# Experimental: Mass spectrometer (UPCLC-MS/MS) Waters Acquity I-Class-Waters Xevo TQ-S. Analytical column Acquity HSS T3 C18 50×2.1 mm, 1.8 μm. Mobile phase A: 10 mM NH4—Formate 0.2% formic acid:Acetonitril (95:5). Mobile phase B: 10 mM NH4—Formate 0.2% formic acid:Acetonitril (5:95). Gradient run from 95/5% to 5/95% in 2.40 minutes. Flow rate 0.3 mL/min. MRM detection of test items and the added analytical standards.
# Animals for the study were as described in Example 10. Additionally, rats were administered a single dose of apomorphine subcutaneously.
# In total, 206 male CD rats (Charles River, Germany) weighing 200-250 grams (165-190 grams upon arrival) were used in the study. Animals were housed at a standard temperature (22±1° C.) and in a light-controlled environment (lights on from 7 am to […]) with ad libitum access to food and water. The experiment described below was performed in accordance with the standard operating procedures of Charles River Discovery Research Services Finland Ltd. and in accordance with the national Animal Experiment Board of Finland (Eläinkoelautakunta, ELLA) authority on animal testing.
# The test device is a square Plexiglass-arena (measuring 40×40×40 cm), in which the movement paths of the rats are recorded by an activity monitor (Med. Associates Inc.). Before the test period is initiated, rats are habituated to their test cage for 60 minutes. Upon completion of habituation, animals were treated with either compound or vehicle and placed back into the open field apparatus. The main test parameter measured is ambulatory distance (recorded in 5-minute segments). Overall time of measurement after receiving initial treatment was 360 minutes. Total follow up period in the study was 420 min, including 60 min of habituation.
# [5] = Oral dosing of compound (Id) in minipigs; format: in vivo, minipig
# [6] = Conversion of (Id) to (I) in fresh human blood; format: in vitro ADME; conditions: 1 μg/mL, 37° C., 0-60 minutes
# Experimental: as §1
# human hepatocytes = experiment: Conversion of compound (Id) to compound (I) in human hepatocytes; format: in vitro ADME; conditions: 1 μg/mL, 37° C., 0.25-60 minutes
# Experimental: (§2) The cell concentration at incubation was 1×10^6 viable cells/mL. The incubations were performed in glass tubes at 37° C. with a total incubation volume of 3.5 mL and with duplicate incubations for each test item. The 3.5 mL of hepatocyte suspension was equilibrated for 10 minutes in a water bath set to 37° C. where after the incubations were initiated by adding 3.5 μL of a stock solution of the test item in DMSO (Dimethyl sulfoxide) and gently inverting the tubes. The final solvent concentration in the incubations was 0.1% DMSO. Samples of 600 μL were withdrawn from the incubations at the pre-determined time points of 0.25, 5, 15, 30 and 60 minutes after ensuring homogeneity of hepatocyte suspensions. The withdrawn volume was added to 1 mL Nunc cryo tubes on wet ice containing 60 μL of ice-cold ascorbic acid (100 mg/mL) and 30 μL of ice cold 100 mM saccharic acid 1,4-lactone in 0.5 M citric acid. The tubes were mixed and 35 μL of a solution of ice cold 20% formic acid was added. The tubes were mixed thoroughly and stored at −80° C. awaiting analysis.
# rat hepatocytes = experiment: Conversion of compound (Id) to compound (I) in rat hepatocytes; format: in vitro ADME; conditions: 1 μg/mL, 37° C., 0.25-60 minutes
# Experimental: as §2
# [7] = man, after oral dosing; cited from earlier work
# T1 sequence (P41595 whole entry): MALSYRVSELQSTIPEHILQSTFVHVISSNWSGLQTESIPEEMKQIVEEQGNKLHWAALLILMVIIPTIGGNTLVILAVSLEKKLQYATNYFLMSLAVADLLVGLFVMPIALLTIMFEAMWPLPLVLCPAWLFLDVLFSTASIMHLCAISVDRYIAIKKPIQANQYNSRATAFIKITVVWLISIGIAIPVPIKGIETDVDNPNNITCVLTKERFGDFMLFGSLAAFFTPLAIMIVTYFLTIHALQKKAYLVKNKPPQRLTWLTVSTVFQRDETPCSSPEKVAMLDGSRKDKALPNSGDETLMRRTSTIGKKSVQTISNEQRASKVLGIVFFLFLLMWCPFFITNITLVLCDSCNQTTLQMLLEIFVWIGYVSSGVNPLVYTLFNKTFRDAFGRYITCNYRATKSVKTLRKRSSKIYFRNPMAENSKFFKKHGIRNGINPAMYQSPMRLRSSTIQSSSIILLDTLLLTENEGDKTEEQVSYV
smiles,measurement,setting,value
CCCN1CCC[C@@H]2CC3=C(CCCC3=O)C[C@H]21 [(Ia)],"Plasma profile of compound (I) after oral dosing, in words",[1],early and high peak concentrations
same,5-HT2B agonist effect at single concentration,"human 5-HT2B receptor; @ 30 μM, percent of control response to 1 μM 5-HT",58% @ 30 μM
CCCN1CCC[C@@H]2Cc3c(ccc(OC(=O)C(C)(C)C)c3OC(=O)C(C)(C)C)C[C@H]21 [(Ic)],"Plasma profile of compound (I) after oral dosing, in words",[1],extremely low
same,5-HT2B agonist effect at single concentration,human 5-HT2B receptor; @ 10 μM,−5% @ 10 μM
"CCCN1CCC[C@@H]2Cc3c(ccc(O)c3O)C[C@H]21 [Compound (I), (4aR,10aR)-1-Propyl-1,2,3,4,4a,5,10,10a-octahydro-benzo[g]quinoline-6,7-diol]","Oral bioavailability, in words",[2],low oral bioavailability
CCCN1CCC[C@@H]2Cc3c(ccc4c3OCO4)C[C@H]21 [Compound (Ib)],"Plasma profile of compound (I) after oral dosing, in words",[1],early and high peak concentrations
"CCCN1CCC[C@@H]2Cc3c(ccc(O)c3O[C@@H]3O[C@H](C(=O)O)[C@@H](O)[C@H](O)[C@H]3O)C[C@H]21 [Compound (Id), (2S,3S,4S,5R,6S)-3,4,5-trihydroxy-6-(((4aR,10aR)-7-hydroxy-1-propyl-1,2,3,4,4a,5,10,10a-octahydrobenzo[g]quinolin-6-yl)oxy)tetrahydro-2H-pyran-2-carboxylic acid]",Conversion to compound (I),[3],time dependent conversion
same,pKa,"[4]; anion / dianion boundary pH, read-out: pKa (third), boundary between major species of ionization",10.1
same,pKa,"[4]; cation / zwitterion boundary pH, read-out: pKa (first), boundary between major species of ionization",2.8
same,pKa,"[4]; zwitterion / anion boundary pH, read-out: pKa (second), boundary between major species of ionization",8.8
same,"Plasma profile of compound (I) after oral dosing, in words",[1],slower absorption rate avoiding rapid peak concentrations accompanied by a sustained exposure
same,Relationship of behavioral effect and plasma concentration,"rat locomotor activity; (Id) 100 μg/kg p.o. (FIG. 4), apomorphine 3 mg/kg s.c. (FIG. 5)",correlate with the plasma concentrations of compound (I)
same,"Duration of locomotor effect, in words","rat locomotor activity; (Id) 10 to 300 μg/kg p.o., recording to the 415-minute time point",lasting until the end of recording
same,"Total distance travelled, in words","rat locomotor activity; FIG. 3, (Id) 10, 30, 100 or 300 μg/kg p.o., apomorphine 3 mg/kg s.c., pramipexole 0.3 mg/kg s.c., vs vehicle",significantly increased activity
same,In vivo conversion to compound (I),[5],In vivo conversion of compound (Id) to compound (I) has also been observed
same,Conversion to compound (I),[6],time dependent conversion
same,Conversion to compound (I),human hepatocytes,time dependent conversion
same,Conversion to compound (I),rat hepatocytes,time dependent conversion
CCCc1cc2c(s1)CN[C@@H]1CCc3cc(OC(C)=O)c(OC(C)=O)cc3[C@@H]21 [adrogolide],Oral bioavailability,[7],~4%
